# PubChem BioAssay AID2060887 (Molecular Pharmacology Branch, DTP, NCI, 2025)
# Several values for one entry are separate records, joined by “and”; a condition that tells them apart may be missing. Identical values can stand only once.
# System: 782815-120-R-J1-PDC complex spheroid viability
# Assay: Anticancer human tumor 782815-120-R-J1-PDC patient-derived colon adenocarcinoma cell line growth inhibition [RAS]
# Conditions: for viability, T/C: stronger effect = lower value
# Excerpt: RAS pathway inhibitors in Combinations in Complex Spheroids
# A high-throughput screen of multi-cell type tumor spheroids was designed to identify active combinations of RAS pathway inhibitors and targeted small molecules. Complex spheroids include a stromal component modeled by human endothelial cells (HUVEC) and fibroblasts modeled by human mesenchymal stem cells (MSCs). The concentration ranges selected for each drug and investigational agent were based upon clinically achievable concentrations if the clinical Cmax of the agent was known.
# Compounds. The drugs and investigational agents: abemaciclib (NSC768073), cobimetinib (NSC768068), divarasib (GDC6063, NSC841802), docetaxel (NSC628503), GDC-1971 (RLY-1971, NSC841576), gemcitabine (NSC613327), inavolisib (NSC800729), ipatasertib (NSC767898), KB-0742 (NSC834161), MRTX-1133 (NSC836407), osimertinib (NSC779217), RMC-4630 (NSC839698), RMC-6236 (NSC851965), RMC-6291 (NSC852671), Ro-3306 (NSC812927), sapanisertib (NSC764658), SN-38 (NSC673596), staurosporine (NSC755774), SY5609 (NSC837396), and tovorafenib (DAY101, NSC766906), were obtained from the National Cancer Institute (NCI) Developmental Therapeutics Program Chemical Repository. The FDA-approved anticancer drug set is available from the NCI Developmental Therapeutics Program. […] The stock solutions were prepared in dimethyl sulfoxide (DMSO, Sigma-Aldrich, St. Louis, MO, cat. D2650) at 800-fold the tested concentration and stored at -70 degrees C prior to their use. All drugs and investigational agents were tested over a range starting from a high concentration at or near the clinical Cmax and decreasing in half-log increments. If the clinical Cmax for an agent had not been determined, the highest concentration tested was 10 microM.
# Cell Culture. All cells were maintained in an incubator at 37 degrees C and 5% CO2 with 95% humidity. The PDC lines were cultured according to standard operating procedures established by the NCI PDMR. All PDCs were thawed and cultured in Matrigel-coated flasks prepared with a working solution of 1X Ham's F-12 nutrient mix, without supplementation (Invitrogen, Waltham, MA, cat. 11765054), 100 U/mL penicillin-streptomycin (Invitrogen, cat. 15140122), and 2.5% Matrigel (Corning Inc., Corning, NY, cat. 354248) for the first three passages. The 362531-283-R-J2-PDC and 782815-120-R-J1-PDC lines were cultured in 6C/Colon 1B media, which includes advanced DMEM/F-12 (Thermo Fisher Scientific, cat. 12634028), 10 mM HEPES (Thermo Fisher Scientific, cat. 15630080), 1X GlutaMAX supplement (Thermo Fisher Scientific, cat. 35050061), 0.1 mg/mL primocin (InvivoGen, San Diego, CA, cat. ant-pm-2), 10% defined fetal bovine serum, heat inactivated (HyClone Laboratories Inc., Logan, UT, cat. SH30070.03HI), 50% L-WRN conditioned media (ATCC, cat. CRL-3276), 1.25 mM N-Acetyl-L-cysteine (Sigma-Aldrich, cat. A9165), 10 mM nicotinamide (Sigma-Aldrich, cat. N0636), 1X B-27 supplement (Thermo Fisher Scientific, cat. 17504044), 1X N-2 supplement (Thermo Fisher Scientific, cat. 17502048), 50 ng/mL human EGF (Thermo Fisher Scientific, cat. PHG0311), and 10 microM Y-27632 dihydrochloride (Tocris Bioscience, cat. 1254). The K12877-001-R-J1-PDC line was cultured in 6I media, which includes all 6C/Colon 1B media plus 10 ng/mL human FGF-10 (PeproTech, cat. 100-26), 1 ng/mL human FGF-2 (PeproTech, cat. 100-18B), 1 µM prostaglandin E2 (Tocris Bioscience, cat. 2296), […] hydrocortisone (Sigma-Aldrich, cat. H4001), and […] bovine insulin (Sigma-Aldrich, cat. I6634). The K86415-001-R-J1-PDC line was cultured in 6D media, which includes all 6C/Colon 1B media components minus the L-WRN conditioned media. The 485176-168-R4-J1-PDC was cultured in PANC media, which includes all 6C/Colon 1B media plus 100 ng/mL human FGF-10 (PeproTech, cat. 100-26), 500 nM SB-431542 (Selleckchem, cat. S1067), and 10 nM gastrin (Tocris Bioscience, cat. 3006). […]
# [1] = curve of first compound, second compound 0.0316 µM
# [2] = curve of first compound, second compound 0.1 µM
# [3] = curve of first compound, second compound 0.316 µM
# [4] = curve of first compound, second compound 1 µM
# [5] = curve of first compound, second compound 3.16 µM
# [6] = curve of first compound, second compound 10 µM
# [7] = second compound 0.0316 µM, first compound 0.00316 µM
# [8] = second compound 0.0316 µM, first compound 0.01 µM
# [9] = second compound 0.0316 µM, first compound 0.0316 µM
# [10] = second compound 0.0316 µM, first compound 0.1 µM
# [11] = second compound 0.0316 µM, first compound 0.316 µM
# [12] = second compound 0.0316 µM, first compound 1 µM
# [13] = second compound 0.1 µM, first compound 0.00316 µM
# [14] = second compound 0.1 µM, first compound 0.01 µM
# [15] = second compound 0.1 µM, first compound 0.0316 µM
# [16] = second compound 0.1 µM, first compound 0.1 µM
# [17] = second compound 0.1 µM, first compound 0.316 µM
# [18] = second compound 0.1 µM, first compound 1 µM
# [19] = second compound 0.316 µM, first compound 0.00316 µM
# [20] = second compound 0.316 µM, first compound 0.01 µM
# [21] = second compound 0.316 µM, first compound 0.0316 µM
# [22] = second compound 0.316 µM, first compound 0.1 µM
# [23] = second compound 0.316 µM, first compound 0.316 µM
# [24] = second compound 0.316 µM, first compound 1 µM
# [25] = second compound 1 µM, first compound 0.00316 µM
# [26] = second compound 1 µM, first compound 0.01 µM
# [27] = second compound 1 µM, first compound 0.0316 µM
# [28] = second compound 1 µM, first compound 0.1 µM
# [29] = second compound 1 µM, first compound 0.316 µM
# [30] = second compound 1 µM, first compound 1 µM
# [31] = second compound 3.16 µM, first compound 0.00316 µM
# [32] = second compound 3.16 µM, first compound 0.01 µM
# [33] = second compound 3.16 µM, first compound 0.0316 µM
# [34] = second compound 3.16 µM, first compound 0.1 µM
# [35] = second compound 3.16 µM, first compound 0.316 µM
# [36] = second compound 3.16 µM, first compound 1 µM
# [37] = second compound 10 µM, first compound 0.00316 µM
# [38] = second compound 10 µM, first compound 0.01 µM
# [39] = second compound 10 µM, first compound 0.0316 µM
# [40] = second compound 10 µM, first compound 0.1 µM
# [41] = second compound 10 µM, first compound 0.316 µM
# [42] = second compound 10 µM, first compound 1 µM
# 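Further: spheroids exposed to compounds for 7 days before reading.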
# 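Wherever viability, T/C is given: 100% = DMSO vehicle control viability.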
smiles,measurement,setting,value
CC(=O)OC12COC1CC(O)C1(C)C(=O)C(O)C3=C(C)C(OC(=O)C(O)C(NC(=O)OC(C)(C)C)c4ccccc4)CC(O)(C(OC(=O)c4ccccc4)C21)C3(C)C (stereo not given),"viability, T/C",compound 0.0316 µM,35% [middle of 4 runs]
same,"viability, T/C",compound 0.1 µM,33.6% [middle of 4 runs]
same,"viability, T/C",compound 0.316 µM,25.9% [middle of 4 runs]
same,"viability, T/C",compound 1 µM,27.1% [middle of 4 runs]
same,"viability, T/C",compound 3.16 µM,27.9% [middle of 4 runs]
same,"viability, T/C",compound 10 µM,33.1% [middle of 4 runs]
same,IC50,curve of compound,< 31.6 nM
Cc1nc(N2CCC3(CC2)COC(C)C3N)c(CO)nc1Sc1ccnc(N)c1Cl (stereo not given),"viability, T/C",compound 0.0316 µM,96.6% [middle of 4 runs]
same,"viability, T/C",compound 0.1 µM,99.8% [middle of 4 runs]
same,"viability, T/C",compound 0.316 µM,93.7% [middle of 4 runs]
same,"viability, T/C",compound 1 µM,94.7% [middle of 4 runs]
same,"viability, T/C",compound 3.16 µM,98.3% [middle of 4 runs]
same,"viability, T/C",compound 10 µM,104% [middle of 4 runs]
same,IC50,curve of compound,> 10000 nM
NC1c2ccccc2OC12CCN(c1cnc3c(N4CCCc5ncccc54)n[nH]c3n1)CC2 (stereo not given),"viability, T/C",compound 0.0316 µM,99% [middle of 4 runs]
same,"viability, T/C",compound 0.1 µM,96.6% [middle of 4 runs]
same,"viability, T/C",compound 0.316 µM,104% [middle of 4 runs]
same,"viability, T/C",compound 1 µM,95% [middle of 4 runs]
same,"viability, T/C",compound 3.16 µM,102% and 94.6% and 99.8% (2×)
same,"viability, T/C",compound 10 µM,86.9% [middle of 4 runs]
same,IC50,curve of compound,> 10000 nM
C=CC(=O)Nc1cc(Nc2nccc(-c3cn(C)c4ccccc34)n2)c(OC)cc1N(C)CCN(C)C + C#Cc1c(F)ccc2cc(O)cc(-c3ncc4c(N5CC6CCC(C5)N6)nc(OCC56CCCN5CC(F)C6)nc4c3F)c12,IC50,[1],> 1000 nM
same,IC50,[2],> 1000 nM
same,IC50,[3],> 1000 nM
same,IC50,[4],> 1000 nM
same,IC50,[5],> 1000 nM
same,IC50,[6],> 1000 nM
same,"viability, T/C",[7],99.3%
same,"viability, T/C",[8],93.8%
same,"viability, T/C",[9],101%
same,"viability, T/C",[10],97.2%
same,"viability, T/C",[11],98.9%
same,"viability, T/C",[12],93.6%
same,"viability, T/C",[13],103%
same,"viability, T/C",[14],97.2%
same,"viability, T/C",[15],97.5%
same,"viability, T/C",[16],93.6%
same,"viability, T/C",[17],101%
same,"viability, T/C",[18],89.5%
same,"viability, T/C",[19],98.2%
same,"viability, T/C",[20],94.3%
same,"viability, T/C",[21],105%
same,"viability, T/C",[22],89%
same,"viability, T/C",[23],95%
same,"viability, T/C",[24],101%
same,"viability, T/C",[25],95.5%
same,"viability, T/C",[26],96%
same,"viability, T/C",[27],101%
same,"viability, T/C",[28],92.4%
same,"viability, T/C",[29],100%
same,"viability, T/C",[30],101%
same,"viability, T/C",[31],99.9%
same,"viability, T/C",[32],101%
same,"viability, T/C",[33],98.4%
same,"viability, T/C",[34],94.4%
same,"viability, T/C",[35],97%
same,"viability, T/C",[36],95.8%
same,"viability, T/C",[37],100%
same,"viability, T/C",[38],91.7%
same,"viability, T/C",[39],110%
same,"viability, T/C",[40],101%
same,"viability, T/C",[41],94.4%
same,"viability, T/C",[42],91.7%
O=C(c1ccc(F)c(F)c1Nc1ccc(I)cc1F)N1CC(O)([C@@H]2CCCCN2)C1 + C#Cc1c(F)ccc2cc(O)cc(-c3ncc4c(N5CC6CCC(C5)N6)nc(OCC56CCCN5CC(F)C6)nc4c3F)c12,IC50,[1],84.7 nM
same,IC50,[2],57 nM
same,IC50,[3],65.9 nM
same,IC50,[4],79 nM
same,IC50,[5],54.3 nM
same,IC50,[6],58.3 nM
same,"viability, T/C",[7],95.6%
same,"viability, T/C",[8],95%
same,"viability, T/C",[9],66%
same,"viability, T/C",[10],47.1%
same,"viability, T/C",[11],23.6%
same,"viability, T/C",[12],3.7%
same,"viability, T/C",[13],97.4%
same,"viability, T/C",[14],81%
same,"viability, T/C",[15],61.5%
same,"viability, T/C",[16],38.6%
same,"viability, T/C",[17],20.8%
same,"viability, T/C",[18],4.18%
same,"viability, T/C",[19],98.7%
same,"viability, T/C",[20],88.4%
same,"viability, T/C",[21],63.1%
same,"viability, T/C",[22],42.2%
same,"viability, T/C",[23],19.1%
same,"viability, T/C",[24],2.93%
same,"viability, T/C",[25],97.8%
same,"viability, T/C",[26],85.4%
same,"viability, T/C",[27],69.7%
same,"viability, T/C",[28],46.5%
same,"viability, T/C",[29],18.1%
same,"viability, T/C",[30],1.87%
same,"viability, T/C",[31],99.4%
same,"viability, T/C",[32],85.9%
same,"viability, T/C",[33],59.1%
same,"viability, T/C",[34],40.7%
same,"viability, T/C",[35],10.4%
same,"viability, T/C",[36],0.92%
same,"viability, T/C",[37],98.4%
same,"viability, T/C",[38],88.3%
same,"viability, T/C",[39],61.4%
same,"viability, T/C",[40],41.2%
same,"viability, T/C",[41],10.1%
same,"viability, T/C",[42],0.5%
